Assay [1] has as its system SkBr3 (Her2 overexpressing breast cancer cells). The assay is described as follows: Anti-proliferation activity against SkBr3 cells (MTS/PMS). It counts as cell-based. The conditions noted are these: read-out: IC50, SKBr3. How it is done:
(§1) Upon completion of synthesis of library of compounds in Examples 23 and 24, the compounds were evaluated for anti-proliferative activity against SkBr3 (Her2 overexpressing breast cancer cells), MCF-7 (estrogen receptor positive breast cancer cells), HCT-116 (colon cancer cells characterized by wild-type p53), PL45 (pancreatic cancer cells), LNCaP (androgen sensitive prostate cancer cells) and PC-3 (androgen independent prostate cancer cells) cell lines.
(§2) Cells were maintained in a 1:1 mixture of Advanced DMEM/F12 (Gibco) supplemented with non-essential amino acids, L-glutamine (2 mM), streptomycin (500 ng/mL), penicillin (100 units/mL), and 10% FBS. Cells were grown to confluence in a humidified atmosphere (37° C., 5% CO2), seeded (2000/well, 100 μl) in 96-well plates, and allowed to attach overnight. Compound or GDA at varying concentrations in DMSO (1% DMSO final concentration) was added, and cells were returned to the incubator for 72 hours. At 72 hours, the number of viable cells was determined using an MTS/PMS cell proliferation kit (Promega) per the manufacturer's instructions. Cells incubated in 1% DMSO were used at 100% proliferation, and values were adjusted accordingly. IC50 values were calculated from separate experiments performed in triplicate using GraphPad Prism.
as §2, with “μg/mL),” for “ng/mL),”, “μL)” for “μl)”

Assay [2] relates to MCF-7 (estrogen receptor positive breast cancer cells). The experiment in a line: Anti-proliferation activity against MCF-7 cells (MTS/PMS). The conditions noted are these: Homo sapiens, MCF7; Table 18, modified furanose or pyranose noviose replacements; read-out: IC50, MCF7. It counts as cell-based. How it is done: as §1, §2
as §2, with “μg/mL),” for “ng/mL),”, “μL)” for “μl)”

The mark [3] stands for this setting: Homo sapiens, SK-BR-3, Table 18, modified furanose or pyranose noviose replacements.

Like-named read-outs stand apart in the source and are kept apart here.

As for `CC(C)=CCc1cc(C(=O)Nc2cc3ccc(O[C@H]4OCC[C@@H](O)[C@H]4O)c(C)c3oc2=O)ccc1O` [16a, KU-425, N-(7-((2R,3R,4R)-3,4-dihydroxytetrahydro-2H-pyran-2-yloxy)-8-methyl-2-oxo-2H-chromen-3-yl)-4-hydroxy-3-(3-methylbut-2-enyl)benzamide], the IC50 in assay [1] (setting [3]) amounted to 10.68 ± 0.05 µM; in assay [2], 10.04 ± 0.03 µM.

`CC(C)=CCc1cc(C(=O)Nc2cc3ccc(O[C@@H]4OCC[C@@H](O)[C@H]4O)c(C)c3oc2=O)ccc1O` [16b, KU-426, N-(7-((2S,3R,4R)-3,4-dihydroxytetrahydro-2H-pyran-2-yloxy)-8-methyl-2-oxo-2H-chromen-3-yl)-4-hydroxy-3-(3-methylbut-2-enyl)benzamide]: the IC50 is 6.96 ± 0.06 µM in assay [1] (setting [3]) and 13.3 ± 0.21 µM in assay [2].

`CC(C)=CCc1cc(C(=O)Nc2cc3ccc(O[C@H]4OCCC[C@H]4O)c(C)c3oc2=O)ccc1O` [17a, KU-427, 4-Hydroxy-N-(7-((2R,3R)-3-hydroxytetrahydro-2H-pyran-2-yloxy)-8-methyl-2-oxo-2H-chromen-3-yl)-3-(3-methylbut-2-enyl)benzamide]: the figures for the IC50 in assay [1] (setting [3]) and in assay [2] were 7.87 ± 0.04 µM and 6.45 ± 0.13 µM, respectively.

In the case of `CC(C)=CCc1cc(C(=O)Nc2cc3ccc(O[C@@H]4OCCC[C@H]4O)c(C)c3oc2=O)ccc1O` [17b, KU-428, 4-Hydroxy-N-(7-((2S,3R)-3-hydroxytetrahydro-2H-pyran-2-yloxy)-8-methyl-2-oxo-2H-chromen-3-yl)-3-(3-methylbut-2-enyl)benzamide], the IC50 in assay [1] (setting [3]) stood at 30 ± 2.07 µM; in assay [2], 10.2 ± 0.21 µM.

Turning to `CC(C)=CCc1cc(C(=O)Nc2cc3ccc(O[C@H]4C[C@H](O)CCO4)c(C)c3oc2=O)ccc1O` [18a, KU-429, 4-Hydroxy-N-(7-((2S,4R)-4-hydroxytetrahydro-2H-pyran-2-yloxy)-8-methyl-2-oxo-2H-chromen-3-yl)-3-(3-methylbut-2-enyl)benzamide], the IC50 stood at 5.07 ± 0.23 µM in assay [1] (setting [3]) and 1.34 ± 0.18 µM in assay [2].

With `CC(=O)Oc1ccc(C(=O)Nc2cc3ccc(O[C@@H]4OC[C@H](O)[C@@H]4O)c(C)c3oc2=O)cc1CC=C(C)C` [19, KU-431, 4-(7-((2S,3S,4S)-3,4-Dihydroxytetrahydrofuran-2-yloxy)-8-methyl-2-oxo-2H-chromen-3-ylcarbamoyl)-2-(3-methylbut-2-enyl)phenyl acetate], the IC50 in assay [1] (setting [3]) worked out at 14.4 ± 0.52 µM; in assay [2], 14.3 ± 0.4 µM.

In the case of `CC(=O)Oc1ccc(C(=O)Nc2cc3ccc(O[C@H]4C[C@@H](O)CO4)c(C)c3oc2=O)cc1CC=C(C)C` [20a, KU-432, 4-(7-((2S,4R)-4-Hydroxytetrahydrofuran-2-yloxy)-8-methyl-2-oxo-2H-chromen-3-ylcarbamoyl)-2-(3-methylbut-2-enyl)phenyl acetate], the IC50 in assay [1] (setting [3]) was 22.2 ± 0.94 µM; in assay [2] it was above 100 µM.

On to `CC(=O)Oc1ccc(C(=O)Nc2cc3ccc(O[C@@H]4C[C@@H](O)CO4)c(C)c3oc2=O)cc1CC=C(C)C` [20b, KU-433, 4-(7-((2R,4R)-4-Hydroxytetrahydrofuran-2-yloxy)-8-methyl-2-oxo-2H-chromen-3-ylcarbamoyl)-2-(3-methylbut-2-enyl)phenyl acetate], for which the half-inhibitory concentration (IC50) in assay [1] (setting [3]) was determined as 21.5 ± 2.28 µM; in assay [2], 22.5 ± 0.4 µM.

For the compound `CC(=O)Oc1ccc(C(=O)Nc2cc3ccc(OC4CCN(C)CC4)c(C)c3oc2=O)cc1CC=C(C)C` [29a, KU-397, 4-(8-Methyl-7-(1-methylpiperidin-4-yloxy)-2-oxo-2H-chromen-3-ylcarbamoyl)-2-(3-methylbut-2-enyl)phenyl acetate], the IC50 in assay [1] (Table 19, 7-oxyalkylamino and 7-oxypiperidinyl analogues) turned out to be 1.18 ± 0.2 µM.

Consider `CC(C)=CCc1cc(C(=O)Nc2cc3ccc(OC4CCN(C)CC4)c(C)c3oc2=O)ccc1O` [31a, KU-398, 4-Hydroxy-N-(8-methyl-7-(1-methylpiperidin-4-yloxy)-2-oxo-2H-chromen-3-yl)-3-(3-methylbut-2-enyl)benzamide], for which the IC50 in assay [1] (Homo sapiens, SK-BR-3, Table 19, 7-oxyalkylamino and 7-oxypiperidinyl analogues) was determined as 1.09 ± 0.1 µM.

The IC50 is the point on the concentration scale where inhibition reaches its midpoint.

For the origin of these results see patent US9120774B2 (University of Kansas, priority 2009, dated 2015).
